# Counter-ions that a name gives are not always drawn. Like-named read-outs stand apart in the source and are kept apart here.
# Key:
# ER in MCF-7 cells = ER in MCF-7 cells (Homo sapiens (Human), UniProt P03372); experiment: In-cell Western (ICW) ER degradation assay in MCF-7 cells; assay type: cell-based; conditions: for DC50: MCF-7, ER degradation, read-out: MCF7 DC50
# Source text: (§1) In-cell Western (ICW) assays in MCF-7 and T47D cell lines.
# (§2) Day 3: After 16 hrs of compounds treatment, cells were fixed by 4% PFA and permeabilized with elution buffer (0.1% Triton X-100 in 1% PBS Solution). Subsequently, cells were blocked with Intercept (PBS) Blocking Buffer (Li-COR, Odyssey Blocking Buffer), and were stained with ER (1:500, Cell signaling) primary antibody for overnight at cold room.
# (§3) Day 4: Remove the buffer, add IRDye 800CW Goat anti-Rabbit IgG Secondary Antibody (1:2000) and CellTag 700 Stain (1:500) in Intercept (PBS) Blocking Buffer. Finally, cell plate is placed in incubator to dry. Image and signal were captured on Odyssey® DLx Imaging System.
# ER in T47D cells = ER in T47D cells (Homo sapiens (Human), UniProt P03372); experiment: In-cell Western (ICW) ER degradation assay in T47D cells; assay type: cell-based; conditions: for DC50: ER degradation
# Chain of ER in T47D cells (P03372 whole entry): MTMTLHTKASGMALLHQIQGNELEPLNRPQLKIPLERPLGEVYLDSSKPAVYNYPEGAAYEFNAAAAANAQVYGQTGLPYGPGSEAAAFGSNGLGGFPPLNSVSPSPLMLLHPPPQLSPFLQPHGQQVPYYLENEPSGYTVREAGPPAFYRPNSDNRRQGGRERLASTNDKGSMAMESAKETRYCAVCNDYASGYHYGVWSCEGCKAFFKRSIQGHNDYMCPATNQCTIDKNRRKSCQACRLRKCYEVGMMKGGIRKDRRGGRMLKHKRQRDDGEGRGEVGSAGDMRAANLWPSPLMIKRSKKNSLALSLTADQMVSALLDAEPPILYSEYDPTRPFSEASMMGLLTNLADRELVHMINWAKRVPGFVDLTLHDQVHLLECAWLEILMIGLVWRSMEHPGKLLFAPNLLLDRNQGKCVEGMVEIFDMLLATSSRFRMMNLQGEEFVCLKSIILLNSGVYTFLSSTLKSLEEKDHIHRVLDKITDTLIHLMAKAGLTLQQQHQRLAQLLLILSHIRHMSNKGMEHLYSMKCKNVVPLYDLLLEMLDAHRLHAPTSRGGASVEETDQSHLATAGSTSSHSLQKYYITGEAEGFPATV
# Source text: as §1, §2, §3
# [1] = MCF7, read-out: MCF7 Dmax, MCF-7, maximal ER degradation, 16 hrs treatment
# [2] = maximal ER degradation, 16 hrs treatment, read-out: T47D Dmax
# [3] = MCF7, MCF-7, maximal ER degradation, 16 hrs treatment, read-out: MCF7 Dmax
# [4] = read-out: T47D Dmax, T47D, maximal ER degradation, 16 hrs treatment
# Chain of ER in MCF-7 cells (P03372 whole entry): as above
Compound,Dmax (ER in MCF-7 cells; [1]),DC50 (ER in MCF-7 cells; 16 hrs treatment),DC50 (ER in T47D cells; 16 hrs treatment),Dmax (ER in T47D cells; [2]),Dmax (ER in MCF-7 cells; [3]),Dmax (ER in T47D cells; [4]),"T47D Dmax (ER in T47D cells; maximal ER degradation, 16 hrs treatment)"
"COc1cc(N2CCC(CN3CCN4c5cc6c(cc5OC[C@@H]4C3)C(=O)N([C@H]3CCC(=O)NC3=O)C6)CC2)ccc1[C@H]1c2ccc(O)cc2CC[C@H]1c1ccccc1 (single isomer, unassigned) [Compound A21]",50 to 75%,10 to 100 nM,1 to 10 nM,50 to 75%,,,
"COc1cc(N2CCC3(CC2)CC(CN2CCC(c4ccc(N[C@@H]5CCC(=O)NC5=O)cc4)CC2)C3)c(F)cc1[C@H]1c2ccc(O)cc2CC[C@H]1c1ccccc1 (single isomer, unassigned) [Compound A46]",,10 to 100 nM,10 to 100 nM,25 to 50%,25 to 50%,,
"COc1cc(N2CCC(CN3CCC(c4ccc(N[C@@H]5CCC(=O)NC5=O)cc4F)CC3)CC2)ccc1[C@@H]1c2ccc(O)cc2CC[C@@H]1c1ccccc1 (single isomer, unassigned) [Compound A85]",,< 1 nM,< 1 nM,50 to 75%,25 to 50%,,
"COc1cc(N2CCC(CN3CCC(c4ccc(N[C@H]5CCC(=O)NC5=O)cc4)CC3)CC2)ccc1[C@@H]1c2ccc(O)cc2CC[C@@H]1c1ccccc1 (single isomer, unassigned) [Compound A86]",,1 to 10 nM,10 to 100 nM,25 to 50%,< 25%,,
"COc1cc(N2CCC(CN3CCC(c4ccc(N[C@@H]5CCC(=O)NC5=O)cc4)CC3)CC2)ccc1[C@@H]1c2ccc(O)cc2CC[C@@H]1c1ccccc1 (single isomer, unassigned) [Compound A87]",,< 1 nM,< 1 nM,25 to 50%,25 to 50%,,
"COc1cc(N2CCC3(CC2)CC(CN2CCC(c4ccc(N[C@H]5CCC(=O)NC5=O)cc4)CC2)C3)ccc1[C@@H]1c2ccc(O)cc2CC[C@@H]1c1ccccc1 (single isomer, unassigned) [Compound A96]",,< 1 nM,< 1 nM,50 to 75%,50 to 75%,,
"COc1cc([C@H]2c3ccc(O)cc3CC[C@H]2c2ccccc2)c(F)cc1N1CCC2(CC1)CC(CN1CCN3c4ccc5c(c4OC[C@H]3C1)CN([C@H]1CCC(=O)NC1=O)C5=O)C2 (single isomer, unassigned) [Compound A102]",,,1 to 10 nM,,,> 75%,
"COc1cc([C@@H]2c3ccc(O)cc3CC[C@@H]2c2ccccc2)c(F)cc1N1CCC2(CC1)CC(CN1CCN3c4ccc5c(c4OC[C@H]3C1)CN([C@H]1CCC(=O)NC1=O)C5=O)C2 (single isomer, unassigned) [Compound A103]",,,10 to 100 nM,,,50 to 75%,
"COc1cc(N2CCC3(CC2)CC(CN2CCC(c4ccc(N[C@H]5CCC(=O)NC5=O)cc4F)CC2)C3)ccc1[C@@H]1c2ccc(O)cc2CC[C@@H]1c1ccccc1 (single isomer, unassigned) [Compound A105]",,< 1 nM,1 to 10 nM,50 to 75%,50 to 75%,,
"COc1cc(N2CCC3(CC2)CC(CN2CCC(c4ccc(N[C@@H]5CCC(=O)NC5=O)cc4)CC2)C3)ccc1[C@@H]1c2ccc(O)cc2CC[C@@H]1c1ccccc1 (single isomer, unassigned) [Compound A110]",,< 1 nM,< 1 nM,50 to 75%,50 to 75%,,
"O=C1CC[C@H](NC(=O)c2ccc3c(n2)OC[C@H]2CN(CC4CC5(CCN(c6ccc([C@H]7c8ccc(O)cc8CC[C@H]7c7ccccc7)cn6)CC5)C4)CCN32)C(=O)N1 (single isomer, unassigned) [Compound A114]",,,> 100 nM,< 25%,,,
"O=C1CC[C@H](NC(=O)c2ccc3c(n2)OC[C@H]2CN(CC4CC5(CCN(c6ccc([C@@H]7c8ccc(O)cc8CC[C@@H]7c7ccccc7)cn6)CC5)C4)CCN32)C(=O)N1 (single isomer, unassigned) [Compound A115]",,,1 to 10 nM,> 75%,,,
"O=C1CC[C@H](N2Cc3c(ccc4c3OC[C@H]3CN(CC5CCC6(CC5)CN(c5ccc([C@@H]7c8ccc(O)cc8CC[C@@H]7c7ccccc7)cn5)C6)CCN43)C2=O)C(=O)N1 (single isomer, unassigned) [Compound A123, (S)-3-((R)-7-((2-(5-((1S,2S)-6-hydroxy-2-phenyl-1,2,3,4-tetrahydronaphthalen-1-yl)pyridin-2-yl)-2-azaspiro[3.5]nonan-7-yl)methyl)-1-oxo-1,3,5,5a,6,7,8,9-octahydro-2H-pyrazino[1′,2′: 4,5][1,4]oxazino[2,3-e]isoindol-2-yl)piperidine-2,6-dione]",,< 1 nM,< 1 nM,,,,
"O=C1CC[C@H](N2Cc3c(ccc4c3OC[C@H]3CN(CC5CC6(CCN(c7ncc([C@@H]8c9ccc(O)cc9CC[C@@H]8c8ccccc8)cn7)CC6)C5)CCN43)C2=O)C(=O)N1 (single isomer, unassigned) [Compound A140]",,< 1 nM,1 to 10 nM,> 75%,> 75%,,
"O=C1CC[C@H](N2Cc3c(ccc4c3OC[C@H]3CN(CC5CC6(CCN(c7ccc([C@H]8c9ccc(O)cc9CC[C@H]8c8ccccc8)cc7F)CC6)C5)CCN43)C2=O)C(=O)N1 (single isomer, unassigned) [Compound A147]",,< 1 nM,1 to 10 nM,> 75%,> 75%,,
"O=C1CC[C@@H](N2Cc3cc4c(cc3C2=O)OC[C@H]2CN(CC3COC5(C3)CN(c3ccc([C@H]6c7ccc(O)cc7CC[C@H]6c6ccccc6)cc3)C5)CCN42)C(=O)N1 (stereo in doubt) [Compound A8, (3R)-3-((4aR)-3-((2-(4-((1S,2R)-6-hydroxy-2-phenyl-1,2,3,4-tetrahydronaphthalen-1-yl)phenyl)-5-oxa-2-azaspiro[3,4]octan-7-yl)methyl)-8-oxo-1,2,3,4,4a,5,8,10-octahydro-9H-pyrazino[1′,2′: 4,5][1,4]oxazino[2,3-f]isoindol-9-yl)piperidine-2,6-dione]",> 75%,< 1 nM,< 1 nM,,,,A (“A”: >=75%)
"COc1cc(N2CCC(CN3CCC(c4ccc(N[C@@H]5CCC(=O)NC5=O)cc4F)CC3)CC2)ccc1[C@H]1c2ccc(O)cc2CC[C@H]1c1ccccc1 (stereo in doubt) [Compound A84, (R)-3-((3-fluoro-4-(1-((1-(4-((1R,2R)-6-hydroxy-2-phenyl-1,2,3,4-tetrahydronaphthalen-1-yl)-3-methoxyphenyl)piperidin-4-yl)methyl)piperidin-4-yl)-phenyl)amino)piperidine-2,6-dione formate]",,< 1 nM,10 to 100 nM,25 to 50%,< 25%,,
"O=C1CC[C@H](N2Cc3cc4c(cc3C2=O)OCC42CCN(C[C@H]3COC4(CCN(c5ccc([C@H]6c7ccc(O)cc7CC[C@H]6c6ccccc6)cc5)CC4)C3)CC2)C(=O)N1 [Compound A22, (S)-3-(1′-(((S)-8-(4-((1S,2R)-6-hydroxy-2-phenyl-1,2,3,4-tetrahydronaphthalen-1-yl)-phenyl)-1-oxa-8-azaspiro[4.5]decan-3-yl)methyl)-7-oxo-5,7-dihydro-2H,6H-spiro[furo[2,3-f]isoindolc-3,4′-pipcridin]-6-yl)pipcridinc-2,6-dione]",50 to 75%,< 1 nM,< 1 nM,,,25 to 50%,
"COc1cc(N2CC3(CC(CN4CCC5(CC4)COc4c5ccc5c4CN(C4CCC(=O)NC4=O)C5=O)C3)C2)c(F)cc1[C@@H]1c2ccc(O)cc2CC[C@@H]1c1ccccc1 (stereo partly drawn) [Compound A184, (S)-3-(1′-((2-(2-fluoro-4-((1S, 2S)-6-hydroxy-2-phenyl-1,2,3,4-tetrahydronaphthalen-1-yl)-5-methoxyphenyl)-2-aza-spiro[3.3]heptan-6-yl)methyl)-6-oxo-6,8-dihydro-2H,7H-spiro[furo[2,3-e]isoindole-3,4′-piperidin]-7-yl)piperidine-2,6-dione]",,< 1 nM,,,,,
"O=C1CC[C@H](N2Cc3cc4c(cc3C2=O)OCC42CCN(CC3CCN(c4ccc([C@@H]5c6ccc(O)cc6CC[C@@H]5c5ccccc5)cc4)CC3)CC2)C(=O)N1 [Compound A186, (S)-3-(1′-((1-(4-((1R,2S)-6-hydroxy-2-phenyl-1,2,3,4-tetra-hydronaphthalen-1-yl)phenyl)-piperidin-4-yl)methyl)-7-oxo-5,7-dihydro-2H,6H-spiro[furo [2,3-f]isoindole-3,4′-piperidin]-6-yl)piperidine-2,6-dione]",50 to 75%,< 1 nM,,,,,
"COc1cc(N2CCC3(CC2)CC(CN2CCC4(CC2)COc2nc(C(=O)N[C@H]5CCC(=O)NC5=O)ccc24)C3)c(F)cc1[C@@H]1c2ccc(O)cc2CC[C@@H]1c1ccccc1 [Compound A190, N-((S)-2,6-dioxopiperidin-3-yl)-1′-((7-(2-fluoro-4-((1S,2S)-6-hydroxy-2-phenyl-1,2,3,4-tetrahydronaphthalen-1-yl)-5-methoxyphenyl)-7-azaspiro [3.5]nonan-2-yl)methyl)-2H-spiro[furo[2,3-b]pyridine-3,4′-piperidine]-6-carboxamide]",50 to 75%,< 1 nM,,,,,

# Reference: patent publication US20260028354A1, “TETRAHYDRONAPHTHALENE DERIVATIVES AS ESTROGEN RECEPTOR DEGRADERS” (REGENT OF THE UNIVERSITY OF MICHIGAN, priority 2022, published 2026)
